According to patent US20150133434A1, “Compositions and Methods for Reactivating Latent Immunodeficiency Virus” (priority 2012, published 2015):
“Also recorded” adds a separate entry of the source.

Legend:
[1] = test system: latent LTR-Tat-IRES-GFP construct in J-Lat A2 cells; assay: J-Lat A2 cells (LTR-Tat-IRES-GFP), flow cytometry of GFP; type: cell-based, HIV-1; conditions: 18 h
Protocol: (§1) HEK293T and Jurkat cells were obtained from the American Type Culture Collection. J-Lat (clones A2 and A72) cell lines were described. HEK293T cells were cultured in DMEM supplemented with 10% FBS, 1% L-glutamine and 1% penicillin-streptomycin (Life Technologies). Jurkat and J-Lat cells were cultured in RPMI supplemented with 10% FBS, 1% L-glutamine, and 1% penicillin-streptomycin. TNFα (Sigma-Aldrich) was used at concentrations of 0.25 or 1 ng/ml. Human αCD3 and αCD28 (BD Biosciences) were used at concentrations of 3 and 1 μg/ml, respectively. Prostratin (Sigma) was used at a suboptimal concentration of 0.5 μM, and SAHA (NCI Chemical Carcinogen Repository, Midwest Research Institute) was used at 2.5 μM.
(§2) To determine if BET inhibition specifically activates Tat-dependent transcription, a J-Lat cell line was utilized that harbored a latent lentiviral construct expressing Tat with GFP from the HIV LTR (clone A2; LTR-Tat-IRES-GFP). […] Stimulation with JQ1 yielded up to ninefold more GFP-expressing cells than control-treated cells, and a 22-fold increase was observed when cells were co-treated with JQ1 and low doses of TNFα (FIG. 21A). […] Here, an up to 22-fold increase in GFP^+ cells resulted from JQ1 treatment alone and a 45-fold increase when TNFα was added with JQ1 (FIG. 21B). Both cell lines were also treated with prostratin and SAHA (FIG. 27).
(§3) Two latent J-Lat cell lines A2 (containing a LTR-Tat-IRES-GFP construct) or A72 (containing a LTR-GFP construct) were treated with JQ1 or (R)-JQ1 in combination with TNFα or control at the indicated concentrations for 18 h, followed by flow cytometry analysis. […] Data represent average (±SD) of three independent experiments. All treatments in (A) and (B) on the X axis are in μM.

[2] = test system: latent HIV-1 in Bcl-2-transduced resting CD4+ T cells; type: cell-based; conditions: 24-72 h, average of two donors
[3] = test system: latent DHIV-GFP, X4 virus in nonpolarized T helper cells; assay: Primary T-cell model of latency, ex vivo differentiated nonpolarized CD4+ T cells; type: cell-based, HIV-1; conditions: 96 h after compound addition; minor effect only at highest doses
[4] = test system: latent LTR-GFP construct in J-Lat A72 cells; assay: J-Lat A72 cells (LTR-GFP lacking Tat), flow cytometry of GFP; type: cell-based, HIV-1; conditions: 18 h
Protocol: as §1, §2, §3

[5] = test system: latent HIV (clone R7/E-/GFP) in Jurkat T cells; assay: Reactivation of latent HIV in polyclonal Jurkat T cells (clone R7/E-/GFP), flow cytometry of GFP; type: cell-based, HIV-1; conditions: compound alone, increasing amounts
Protocol: A polyclonal population of Jurkat T cells containing latent HIV (clone R7/E-/GFP) was treated with increasing amounts of JQ1. This viral clone contains a frameshift mutation in the viral Env gene to prevent viral spread and expresses GFP in the Nef open reading frame, which allows separation of actively infected GFP^+ from GFP^− cells by cell sorting. GFP^− cells, which are mostly uninfected but contain a small fraction of latently infected cells with silenced HIV transcription, were treated with JQ1. Activation of transcription was measured by flow cytometry of GFP. […] Stimulation of cells with JQ1 produced up to fivefold more GFP-expressing cells than control-treated cells.
HIV clones R7/E-/GFP and NL4-3/E-/GFP-IRES-nef were derived from pR7-GFP and pNLENG1-EGFP by mutating the Env gene by inserting an early stop codon in the NdeI site. […]. Jurkat cells were spininfected with 25 ng of p24 per 10^6 cells, and GFP^− cells where collected in two rounds of cell sorting 5 and 15 days after infection. The expanded population of GFP^− cells, composed of uninfected and latently infected cells, was seeded in 96-well plates and treated with the indicated concentration of drugs in duplicates. The percentage of GFP^+ cells was detected after 24 h at the MACSQuant VYB FACS analyzer. Data are expressed as the mean percentage of GFP^+ cells, subtracting the average percentage of spontaneous GFP-reactivation in the untreated samples. (A) Jurkat cells containing latent R7/E-/GFP virus were treated with JQ1 or (R)-JQ1 in combination with Prostratin (0.5 μM), SAHA (2.5 μM), TNFα (1 ng/μl), or control at the indicated concentrations for 18 h, followed by flow cytometry analysis. […] Results represent average of two independent experiments. All treatments in (A) and (B) on the X axis are in μM.

[6] = test system: HIV LTR-luciferase reporter (Tat transactivation); assay: Tat transactivation of the HIV promoter, LTR-luciferase in Jurkat 1G5-Tat cells; type: cell-based; conditions: 1G5-Tat clonal cell lines
Protocol: Compounds that specifically bind to the bromodomain of PCAF in vitro were tested in an in vivo assay that measures the transactivation of the HIV promoter by Tat. The Jurkat 1G5 cells contain a stably integrated and silent HIV LTR-luciferase reporter construct. These cells were infected with an HIV-based retroviral vector expressing a 101-amino acids Tat (Tat2ex), generating the 1G5-Tat cells. Introduction of Tat protein activates HIV transcription and produces a stable increase in luciferase activity. Clonal cell lines were derived from the original population and have characterized them in terms of luciferase expression and response to Tat inhibitors. Luciferase expression is stable over time in each clone and is inhibited by more than 80% in response to DRB, a known inhibitor of CDK9 kinase activity and Tat transactivation.
Compounds were tested by incubating them at various concentrations ranging from 1.25 to 40 μM on either 1G5 cells, to test for effects on the HIV LTR, or on 1G5-Tat cells to test for effects on Tat-induced HIV transcription. After 24 hr, cells were harvested and processed for luciferase activity measurement.

| SMILES | activation of HIV transcription (GFP) [1] | reactivation of latent HIV-1 relative to costimulation with αCD3 and αCD28 antibodies [2] | reversal of latency (GFP) [3] | activation of HIV transcription (GFP) [4] | activation of HIV transcription (GFP) ([1]; listed as I-BET151) | activation of HIV transcription (GFP) ([4]; listed as I-BET151) | reactivation of HIV-1 (GFP+ cells) [5] | inhibition of luciferase expression [6] |
| --- | --- | --- | --- | --- | --- | --- | --- | --- |
| COC(=O)C[C@@H]1N=C(c2ccc(Cl)cc2)c2c(sc(C)c2C)-n2c(C)nnc21 [MS417, Methyl 2-((6S)-4-(4-chlorophenyl)-2,3,9-trimethyl-6H-thieno[3,2-f][1,2,4]triazolo[4,3-a][1,4]diazepin-6-yl)acetate] | effectively activated HIV from latency; also recorded: increased GFP expression | same activation | minor activatory effect | effectively activated HIV from latency; also recorded: increased GFP expression | – | – | – | – |
| COc1cc2c(cc1-c1c(C)noc1C)ncc1[nH]c(=O)n([C@H](C)c3ccccn3)c12 [I-Bet151, 7-(3,5-dimethylisoxazol-4-yl)-8-methoxy-1-((R)-1-(pyridin-2-yl)ethyl)-1H-imidazo[4,5-c]quinolin-2(3H)-one] | effectively activated HIV from latency | same activation | – | effectively activated HIV from latency | increased GFP expression | increased GFP expression | – | – |
| O=C(CCCCCCC(=O)Nc1ccccc1)NO [SAHA, suberoylanilidehydroxamic acid] | – | – | resistant to reactivation | – | – | – | – | – |
| Cc1sc2c(c1C)C(c1ccc(Cl)cc1)=N[C@H](CC(=O)OC(C)(C)C)c1nnc(C)n1-2 [(R)-JQ1] | inactive and not and did not activate the integrated HIV promoter | – | – | did not activate the integrated HIV promoter | – | – | not | – |
| OC[C@H]1O[C@@H](n2cnc3cc(Cl)c(Cl)cc32)[C@H](O)[C@@H]1O [DRB] | – | – | – | – | – | – | – | more than 80% |
